Reference: ChEMBL document CHEMBL3507680, “University of Dundee, Gates Library screen for HepG2 cell viability”

Assay: Human HepG2 cell viability assay in 384 well format
Assay type: toxicity, cell-based
Parameters: dose 125 nL, time 70.5 hour; cytotoxicity at 70.5 h: concentration not given beside the values
Settings: HepG2 cells, read-out: Inhibition

Compound | cytotoxicity at 70.5 h [%]
Cc1oc(C(C)C)cc1C(=O)N1C[C@H]2CC[C@@H]1CN(c1ncccn1)C2 | -13.7
C1CCC(N2CCCN(c3nc(C4CC4)no3)CC2)C1 | 0.93
CC(C)(C)SCCN1CC(=O)N2CC[C@@H](O)C[C@H]2C1=O | -9.74
CCOC1CC2(CCN(C(C)=O)CC2)c2cc(F)ccc21 (stereo not drawn) | -3.98
COc1ccccc1OC1CN(C(=O)c2ccc(C(C)=O)s2)C1 | -10.9
CCNC(=O)c1cc(OC)c2cc(F)cc(C)c2n1 | -12.9
COCCNc1ccccc1CNC(=O)NCc1ccc(C)s1 | -6.41
CNc1nc(N2CCN(C3CCCCC3)C(CCO)C2)nc2c1CCC2 (stereo not drawn) | -3.63
COC(=O)CCCNC(=O)Nc1ccccc1OC | 12.5
O=C(NCC1SCCc2ccccc21)c1cscn1 (stereo not drawn) | -13.5
O=C(NCC1CCOC1)c1csc(-c2cccc(Cl)c2)n1 (stereo not drawn) | 1.75
Cc1cccnc1CNC[C@H]1Cn2cc(-c3ccccc3)nc2CO1 | -6.83
COc1ccc(NC(=O)C2CC(=O)N(C)C2)cn1 (stereo not drawn) | -5.38
O=C(NC1CC1)c1ccccc1NCc1cn2cccnc2n1 | -5.34
CCN(CC(=O)Nc1c(C)nn(C)c1C)CC(O)c1ccc(C)cc1 (stereo not drawn) | -5.69
Cn1ccc(C(=O)NC2CCC23CCN(C(=O)C2CCOCC2)CC3)c1 (stereo not drawn) | -4.15
Brc1cccc(-c2nnc(CNCCn3cccn3)o2)c1 | -10.8
CC(NC(=O)c1ccc(Cl)cc1)c1nnc(SCC(=O)O)n1C (stereo not drawn) | 18.7
O=C(NCc1ccc(F)cc1)N1CCC(C2OCCO2)CC1 | -10
O=C(NC1CCC(N2C(=O)CCC2=O)CC1)c1c[nH]c2ccccc12 (stereo not drawn) | 10.8
Cc1ccc(CN2C[C@@H]3CCCO[C@@H]3[C@H](NS(C)(=O)=O)C2)o1 | -9.45
CN(Cc1cnc(N)nc1)C(=O)C1CC(=O)N(Cc2ccncc2)C1 (stereo not drawn) | -10.8
Cc1ccc(NC(C(N)=O)c2ccc(F)cc2)cc1 (stereo not drawn) | -0.0602

Compound | cytotoxicity at 70.5 h [%]
CCOCC(O)CN1CCN(C(=O)c2ccc(N(C)C)nc2)CC1 (stereo not drawn) | 1.39
O=C1CN(CC2CC2)Cc2nc(NCCc3ccccn3)sc21 | 26.4
COCc1noc(CC2CN(c3ncnc4sc(C)c(C)c34)CCO2)n1 (stereo not drawn) | 1.73
CC(C)CCC(C)NC(=O)CN1C=Nc2ccccc2S1(=O)=O (stereo not drawn) | -8.83
COCCNCc1cc2c(C)cc(C)cc2n2c(=O)n(C)nc12 | 2.41
Cc1noc(C(C)N2CCN(c3ncnc4ccccc34)CC2)n1 (stereo not drawn) | -13.6
CCCOCC(=O)Nc1ncc(I)cc1C | 4.92
Cc1cc(C(F)(F)F)nc(CNC(=O)CCn2cccn2)n1 | -6.34
CCCc1nnc(NCCc2noc(C3CC3)n2)o1 | -9.24
CC(C)Oc1ncnc2c1CCN(Cc1ccoc1)CC2 | -0.464
O=C(COc1ccccc1)N1CCC[C@]2(C[C@H](OCC3CC3)CO2)C1 | -7.58
COc1cccc(C(=O)NS(=O)(=O)c2cc(Cl)sc2Cl)c1OC(F)F | -7.95
NC(=O)CCn1ccc(NC(=O)c2ccc(OCC3CC3)cc2)n1 | -3.84
CCN(CC(=O)NC)C(=O)c1cc(-c2cccc(Cl)c2)no1 | -2.85
O=C(c1nc2c(o1)CN(CC1CC1)C2)N1CCCC1 | -13.1
CC(C)N1CCc2c(c(COc3cncnc3)nn2CC2CC2)C1 | -3.91
COCC1CCN(Cc2cc(O)c3c(C)ccc(C)c3n2)CC1 | 17.7
CCN(CC)c1nc2sc(C(=O)NC(C)(C)C(=O)OC)cc2s1 | 0.56
Cc1nc(CNC(C)c2cccc(S(=O)(=O)N(C)C)c2)no1 (stereo not drawn) | 16.5
COCc1c(Cl)cccc1NC(=O)CNC(=O)C(C)(C)C | -4.66
Cc1noc(C2CCCN(C(=O)c3cc(Cl)cn3C)C2)n1 (stereo not drawn) | -4.77
CC(C)N(C)C(=O)c1ccc(Cl)c(NC(=O)C2CCC2)c1 | 19.4
O=C(c1ccco1)N1C[C@H]2CCCN(Cc3cccs3)[C@H]2C1 | 7.1

Compound | cytotoxicity at 70.5 h [%]
O=C(NCc1ccc2c(c1)OCO2)[C@H]1C=CCN1c1ncccn1 | -4.63
Cc1cc(C(=O)NCC(C)N2CCc3ccccc32)no1 (stereo not drawn) | 15.4
CCc1nnc(CN(C)Cc2nc(-c3ccccc3Cl)oc2C)o1 | -3.53
CCOc1ccc(NS(=O)(=O)c2cc(C)c(C(=O)O)s2)cc1F | -8.14
COC(=O)CCN(CC1CCCO1)C(=O)Cc1ccc(OC)c(OC)c1 (stereo not drawn) | -5.89
NC(=O)c1c[nH]nc1NCc1ccc2c(c1)OCO2 | -18.7
COCCN1CC(c2nc(CC3CCN(C)CC3)no2)CCC1=O (stereo not drawn) | -11.5
c1cncc(COCc2nnc3n2CCN(Cc2ccco2)C3)c1 | 1.97
O=C(c1ccccc1)C1CCN(Cc2cc3c(cc2O)CCC3)CC1 | 33.9
O=C(c1cc(Cl)c2c(c1)OCCCO2)N(CC1CCOC1)C1CC1 (stereo not drawn) | -7.67
CC(C)(C)CC(=O)N1[C@@H](c2ccco2)[C@@H](CO)C[C@]12CCCCNC2=O | -5.67
CC(C)c1ccc(/C=C/CC(=O)NC2CCN(C(N)=O)CC2)cc1 | -9.67
C/C=C(\C)CN(CCN1CCOCC1)Cc1ccco1 | -8.08
Cc1cc(S(=O)(=O)N2CCC(N3CCC(O)C3)CC2)c(Cl)cc1Cl (stereo not drawn) | -4.51
Cc1ccc(C(=O)N2CCC3(CC2)CCN(CCN(C)C)C3=O)cn1 | -8.77
NC(=O)NC(=O)CCN(Cc1ccccc1)CC1CCOCC1 | -2.94
CCC(NC(=O)Cn1ccc(=O)n(C)c1=O)c1ccccc1OC (stereo not drawn) | -7
Cc1nn(C(C)C)c2cnn(CC(=O)N3CCN(C)CC3)c12 | -8.52
O=C(NCc1nnc2n1CCCC2)N1CCc2ccccc2C1 | -2.97
O=C(NCCCN1CCOCC1)c1cccc(OCc2ccccc2)c1 | -2.84
O=S(=O)(c1ccccc1)N1C[C@@H]2CCCCN(Cc3cccs3)[C@@H]2C1 | -17.2
COc1cccc(CN(C(=O)Nc2nncs2)C2CCC(O)CC2)c1 (stereo not drawn) | 0.476
Cc1cc(CN(C)C(=O)NC2CCCC2)no1 | -7.06

Compound | cytotoxicity at 70.5 h [%]
CC(C)n1ccnc1CN1C(=O)OC[C@@H]1c1ccccc1 | -2.47
COc1cc(C(=O)N(Cc2cnn(C)c2)C(C)C)ccc1OCC(N)=O | 4.9
O=C(NCc1nnnn1-c1ccccc1)c1ccc(C2CCCO2)s1 (stereo not drawn) | -4.49
CC(C)N(C)Cc1nnc2n1CCCN(c1cnccn1)C2 | -4.42
CC(C)c1n[nH]c(C2CN(C(=O)c3cn4ccccc4n3)CCO2)n1 (stereo not drawn) | 15.7
Cc1ccc(NCCCNc2nccc(-c3cn(C)nc3C)n2)nc1 | 13.9
Cn1nc(C2CCCN(Cc3cc(F)ccc3F)C2)c2nccnc21 (stereo not drawn) | -2.84
O=C(CCCC(=O)NCc1cccc(Br)c1)NCCN1CCCC1 | 1.2
Cc1nccn1CCCNC(=O)C1CCCCN1Cc1ccncc1 (stereo not drawn) | -2.44
Cc1nnsc1C(=O)N1CCN(C(=O)C2CCC2)[C@@H]2CS(=O)(=O)C[C@@H]21 | -10.8
Cc1cc(CN(C)C(=O)c2ccc(F)cc2F)no1 | -7.99
FC(F)(F)COCCN1CCN(c2ccc3nncn3n2)CC1 | 1.24
CC1=NOC(C(=O)N2CCC(O)(c3ccc4nc(C)ccc4c3)CC2)C1 (stereo not drawn) | -6.17
Cc1ccnc(NCCNC(=O)CCNC(=O)c2ccccc2F)c1 | 1.01
CCCC(NC(=O)c1ccc(C)cc1C)c1nnn[nH]1 (stereo not drawn) | 0.32
CCS(=O)(=O)N1CCC2(CCN(CC(=O)N(C)C)C2=O)CC1 | -1.33
CN1CCN(C(=O)[C@@H]2CCO[C@@H]3CCN(c4ncccn4)C[C@@H]32)CC1 | -3.98
CCc1nc2n(n1)CCCC2Nc1nc(C2CC2)ns1 (stereo not drawn) | -8.97
Cc1oncc1C(=O)NCc1cc(=O)n2c(n1)CN(C)CCC2 | -14.9
COc1ncccc1C(=O)N1CCC(Nc2ccc(C)nn2)CC1 | -4.22
CCOCC(=O)NCCc1ccc(I)s1 | 18.6
COC(=O)c1cccc(S(=O)(=O)NC(=O)COC2CCCCC2)c1 | -3.15
CSc1ncc(CNCC2(N3CCCCC3)Cc3ccccc3C2)cn1 | -1.26

Compound | cytotoxicity at 70.5 h [%]
Cc1ccc(CN(CCCN2CCOCC2)Cc2cnc(C)n2C)o1 | 12.4
Cc1c(I)cccc1C(=O)NCc1ncc[nH]1 | -0.0896
O=C(c1ccncc1)N1CCc2ncnc(C3CCOC3)c2CC1 (stereo not drawn) | -10.1
O=C(NCCc1nncn1C1CC1)C1SCCc2ccccc21 (stereo not drawn) | -7.17
COc1ccc2c(ccn2CCC(=O)Nc2n[nH]c(C(C)C)n2)c1 | 24.3
COc1cc(N[C@@H](Cc2ccccc2)C(N)=O)ncn1 | -5.19
O=C(C1CCCOC1)N(CC(F)F)c1cccc(Cl)c1 (stereo not drawn) | 2.67
Cc1ncsc1CN1C[C@@H]2CN(S(C)(=O)=O)CCO[C@@H]2C1 | -7.53
CCS(=O)(=O)N(C)C1CCN(C(=O)c2cc(C)cc(C)c2)CC1 | -14.2
CN(C)Cc1ccnc(C2CN(CCc3ccccc3)CCO2)n1 (stereo not drawn) | 17.9
Cc1cc(C)c(CNC(=O)NCC2CCCOC2)c(=O)[nH]1 (stereo not drawn) | -11.1
Cc1cnn(C2CCCN(C(=O)c3ccc(Cn4ccnc4)cc3)C2)c1 (stereo not drawn) | 17.4
CC(=O)NC1CCN(c2cnc(C3CCNCC3)cn2)CC1 | -3.96
C[C@@H]1CN(Cc2ccc(C(F)(F)F)cc2F)CC[C@]1(C)O | 26.4
CN1C(=O)C2(CCN(CC3CCC3)C2)c2ccccc21 (stereo not drawn) | 9.83
CS(=O)(=O)NCC1CCCN(C(=O)Nc2cccc3ccccc23)C1 (stereo not drawn) | -3.21
O=S(=O)(NC1CCCCC12OCCO2)c1cc(F)cc(F)c1 (stereo not drawn) | -3.19
CCOC(=O)N1CCN(C(=O)c2sc(-c3ccncc3)nc2C)CC1 | 23.5
Cc1nccc(N2C[C@H](NC(=O)CNS(C)(=O)=O)[C@@H](C3CC3)C2)n1 | -5
CCN1C[C@H]2CCN(C(C)=O)CC[C@H]2S1(=O)=O | -14.5
COc1ccccc1N1CCN(Cc2ncc(C)c(OC)c2C)CC1=O | -6.77
